The target in data set [1] is T1, human TP receptor (Homo sapiens, UniProt P21731).
T1 construct: expressed in transfected cells
T1 sequence (P21731 1-343): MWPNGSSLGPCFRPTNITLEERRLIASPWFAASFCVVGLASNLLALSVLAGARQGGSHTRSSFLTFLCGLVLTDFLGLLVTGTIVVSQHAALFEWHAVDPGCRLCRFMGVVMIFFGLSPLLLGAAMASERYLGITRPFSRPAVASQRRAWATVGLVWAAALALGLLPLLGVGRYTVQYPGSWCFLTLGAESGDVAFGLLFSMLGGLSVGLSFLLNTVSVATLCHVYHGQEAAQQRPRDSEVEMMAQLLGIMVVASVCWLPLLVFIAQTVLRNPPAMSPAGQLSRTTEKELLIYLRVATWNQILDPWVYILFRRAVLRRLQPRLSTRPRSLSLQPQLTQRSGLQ
Nature of the data set: Radioligand binding assay (3H-SQ29,548), human TP receptor. Particulars: hTP receptor. The method, then: (§1) QBI-HEK 293A cells expressing human or mouse TxA2 (TP) receptor were grown as described previously and harvested in phosphate-buffered saline with 1 mM EDTA. The cell pellet was homogenized in a glass homogenizer in 20 mM Hepes, 1 mM EGTA, 0.5 mM DTT with protease inhibitor cocktail. The homogenate was initially centrifuged at 1000×g for 10 minutes at 8° C. to remove cell debris. The homogenate was then centrifuged in a Beckman L8-70M ultracentrifuge (Beckman-Coulter, Brea, Calif., USA) at 21,000 rpm for 30 minutes at 4° C., and the pellet was resuspended in 20 mM Hepes, 1 mM EGTA, 100 mM NaCl. Membrane preparations were normalized to protein level as determined with a BCA assay (ThermoFisher, Rockland, Ill.) and stored at −80° C.
(§2) Test antagonists were incubated at 10 different concentrations with 25 μg membrane and 25 nM ^3H-SQ29,548 (PerkinElmer, Waltham, Mass., USA) in 50 mM Tris, 4 mM CaCl2, 0.1% ascorbic acid pH 7.5 for 2 hours at 25° C. in 96-well polystyrene plates. Separation of bound from free radioligand was accomplished by rapid vacuum filtration onto 96-well GF/B filter plates (PerkinElmer, Waltham, Mass., USA). Filters were washed 8 times in 50 mM Tris, pH 6.9 and allowed to dry for 16 hours, Plates were sealed and filters dissolved in 50 μL Betaplate Scintillation fluid (PerkinElmer, Waltham, Mass., USA) and read on a scintillation counter. Data are presented as percent total binding as calculated by a minimum of 3 wells containing membrane and ^3H-SQ29,548 without antagonist.
(§3) Equilibrium dissociation constants (Kd), IC50, and Schild regression analyses was performed with GraphPad Prism software (GraphPad Software Inc., La Jolla, Calif., USA).
(§4) To facilitate the characterization of the new compounds, cell-based TP receptor functional assays were optimized. HEK293 clones have been produced that stably express the human (hTP) or mouse (mTP) TP receptor (a isoform), and treatment of these clones with I-BOP ([1S-[1α,2α(Z),3β(1E,3S*),4α]]-7-[3-[3-hydroxy-4-(4-iodophenoxy)-1-butenyl]-7-oxabicyclo[2.2.1]hept-2-yl]-5-heptenoic acid) results in increased production of inositol triphosphate (IP3) (Knezevic, et al., 1993, Blood 82:A156; Shenker, et al., 1991, J Biol Chem 266:9309-9313; Huang, et al., 2004, Cell Signal 16:521-533) which can be quantified by measuring the breakdown product, inositol monophosphates (IP1), using a commercial time-resolved fluorescence assay. […] A radioligand binding assay was also developed to allow for the determination of binding affinities of compounds at the hTP and mTP receptors.

Data set [2] addresses T2, mouse TP receptor (Mus musculus, UniProt P30987).
T2 construct: expressed in transfected cells
T2 sequence (P30987 1-341): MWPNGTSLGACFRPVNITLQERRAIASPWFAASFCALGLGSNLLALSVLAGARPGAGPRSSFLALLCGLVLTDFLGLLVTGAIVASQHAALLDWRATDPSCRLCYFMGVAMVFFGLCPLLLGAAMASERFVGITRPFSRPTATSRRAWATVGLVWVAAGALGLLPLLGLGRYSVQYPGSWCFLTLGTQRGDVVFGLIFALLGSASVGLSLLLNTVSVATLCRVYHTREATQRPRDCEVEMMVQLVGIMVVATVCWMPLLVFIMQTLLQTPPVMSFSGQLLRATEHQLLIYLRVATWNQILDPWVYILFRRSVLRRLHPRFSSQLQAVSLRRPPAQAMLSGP
Nature of the data set: Radioligand binding assay (3H-SQ29,548), mouse TP receptor. The conditions noted are these: mTP receptor. The method, then:
as §1, §2, §3, §4

The target of data set [3] is T1, human TP receptor. Nature of the data set: IP1 functional HTRF assay, human TP receptor. The data set is classed as cell-based. The conditions noted are these: I-BOP stimulated IP1. The method, then:
(§5) Functional activity of the TP receptor was measured by homogenous time-resolved fluorescence (HTRF) (IP-One Tb, Cisbio, Bedford, Mass., USA). QBI-HEK 293A (MP Biomedicals, Solon, Ohio, USA) cells were transfected with human TP receptor or mouse TP receptor cDNAs cloned into the pcDNA5/TO vector (Invitrogen, Carlsbad, Calif., USA), and stable transformants were selected. Cells were plated at 200,000 cells/mL in DMEM containing 4.5 g/L glucose (Invitrogen, Carlsbad, Calif., USA), 10% fetal bovine serum, L-glutamine, and penicillin/streptomycin into 384-well plates (Grenier Bio-One, Monroe, N.C., USA), followed by incubation for 16 hours at 37° C. with 5% CO2. Culture media was removed and cells were then incubated for 15 min at 37° C. with 5% CO2 in 10 mM Hepes, 1 mM CaCl2, 0.4 mM MgCl2, 4.2 mM KCl, 146 mM NaCl, 5.5 mM glucose, 50 mM LiCl, pH 7.4 (stimulation buffer) containing varying concentrations of test antagonist. I-BOP ([1S-[1α,2α(Z),3β(1E,3S*),4α]]-7-[3-[3-hydroxy-4-(4-iodophenoxy)-1-butenyl]-7-oxabicyclo[2.2.1]hept-2-yl]-5-heptenoic acid) (Cayman Chemicals, Ann Arbor, Mich., USA) was added at a final concentration of 1.6 nM in stimulation buffer and incubated for 1 hour at 37° C. with 5% CO2. […] Plates were then read on a Spectramax M5 microplate reader (Molecular Devices, Sunnyvale, Calif., USA). Data are expressed as the ratio of 665 nm/620 nm fluorescence. […]

Data set [4] has as its target T2, mouse TP receptor. In words: IP1 functional HTRF assay, mouse TP receptor. The data set is classed as cell-based. Particulars: I-BOP stimulated IP1. The method, then:
as §5
A general note: In TR-FRET formats the signal depends on donor and acceptor labels being close together.

A short description of data set [5]: Pro-drug study: plasma levels of compound and carboxylic acid hydrolysis product (51280) by LC-MS/MS. The data set is classed as in vivo. The conditions noted are these: female mice, 5 mg/kg, 1 h after injection. The procedure:
Ester and amide examples can serve as pro-drugs to release the potent carboxylic acid TP receptor antagonist CNDR-51280. Compounds in were administered at 5 mg/kg to female mice, and levels of the compound and the carboxylic acid hydrolysis product (51280) were evaluated by LC-MS/MS 1 h after injection (Table 3).

On to `O=C(O)CCc1cccc2c1CCC(NS(=O)(=O)c1ccc(Cl)cc1)C2` (centres unmarked) [Compound 51280, 3-(6-(4-Chloroplienyistilfonamido)-5,6,7,8-tetrahydronaplithalen-1-yl)propanaic acid], for which the “affinity for TP receptor” value in data set [1] and in data set [2] was “high affinity” throughout. Besides, the “antagonist activity” value in data set [3] and in data set [4] was “potent antagonist” in each case. Besides, the “Plasma (compound)” value in data set [5] is recorded as 10376 (+/− 3480) nM.

The record behind these values is patent US20130190370A1, “Novel Tetrahydronaphalene Antagonists to the Thromboxane A2 (TP) Receptor” (The Trustees of the University of Pennsylvania, priority 2010, published 2013).
